Measured values: US10731164B2, “Aptamer conjugates with N-heterocyclic carbene metal complexes for targeted drug delivery” (University of Florida Research Foundation, Inc., priority 2014, dated 2020)

Legend:
CCRF-CEM cell line = test: MTS cell viability assay, CCRF-CEM cell line; type: cell-based; conditions: 4 h incubation then 48 h
Procedure: All cell lines used in this research were cultured in American Type Culture Collection recommended medium, with 10% fetal bovine serum (Invitrogen, Carlsbad, Calif.) and 0.5 mg/mL penicillin-streptomycin (American Type Culture Collection) at 37° C. under a 5% CO2 atmosphere. CCRF-CEM (T-cell line) and K562 ([…]) were cultured in RPMI 1640 medium; MDA-MB-231 (breast cancer cells were cultured in L-15 medium; DU145 (prostate cancer cell) was cultured in EMEM medium; Hela (cervical cancer cell), HEK293 (human kidney cell) and HU1545v (human untransformed liver cell) were cultured in DMEM medium. Cells were washed before and after incubation with washing buffer [4.5 g/L glucose and 5 mM MgCl2 in Dulbecco's PBS with calcium chloride and magnesium chloride (Sigma-Aldrich)]. Binding buffer was prepared by adding yeast tRNA (0.1 mg/mL; Sigma-Aldrich) and BSA (1 mg/mL; Fisher Scientific) to the washing buffer to reduce background binding. All reagents for buffer preparation and HPLC purification came from Fisher Scientific. […]
A cell viability assay to measure the cytotoxicity of the aptamer-drug conjugate 21 and aptamer-ligand conjugate 28 were performed, as indicated in FIG. 13. […] The assay was allotted 2 h at 37° C. for development, and then the 490 nm absorbance of each well was collected on a Tecan plate 110 reader. […]

[1] = system: cervical carcinoma (HeLa) cells; conditions: background; cited from earlier work
[2] = system: cis-platin resistant cancer cells; conditions: background; cited from earlier work
CCRF-CEM cells = test: Flow cytometry analysis, CCRF-CEM cells; type: cell-based; conditions: 250 nM, 2 h at 4° C.
Procedure: Flow Cytometry Analysis was conducted as follows. Cells were plated in a 35 mm cell culture dish (Corning Incorporated, Corning, N.Y., USA) and grown to around 80% confluency for 24 h before the experiments. Cells were washed twice with 1 mL PBS and then incubated with the prepared aptamer-drug conjugate and LIB-drug conjugate at the concentration of 250 nM for 2 h at 4° C. After incubation, cells were washed with washing buffer three times, dispersed in 80 μL binding buffer, and finally subjected to flow cytometry analysis using a FACScan cytometer (Becton Dickinson Immunocytometry Systems, San Jose, Calif., USA). Fluorescence was determined by counting 30,000 events, and data were analyzed with FlowJo software.
Flow cytometry assays of conjugate 30 (sgc8c-27) with the K562 cell line (left) and the CCRF-CEM cell line are shown in FIGS. 26A and 26B, respectively. Random aptamer sequences conjugated to 27 to create LIB-27 were used as negative control. […] In Similar manner, flow cytometry analysis of MDA-MB-231 cell, PC3 cell, HEK293 cell and HU1545 cell, FIGS. 27A-27D, respectively, after incubated with 32 (AS1411-29) were conducted. AS1411 aptamer was used as positive control, and random library sequences was used as negative control.

1-(anthracen-9-ylmethyl)-3-(4-N-sgc8c-aptamer-carbamoylbenzyl) benzo[d]imidazolium gold(I) chloride [complex 27]
IC50 (CCRF-CEM cell line): 31.1 ± 2.11 µM

CC(=O)OC[C@H]1O[C@@H]([S-])[C@H](OC(C)=O)[C@@H](OC(C)=O)[C@@H]1OC(C)=O.CCP(CC)CC.[Au+] [Auranofin]
activity against HeLa cells in vitro [1]: highly active
effect against cis-platin resistant cancer cells [2]: effective

sgc8c: leukemia-specific aptamer 5′-ATCTAACTGCTGCGCCGCCGGGAAAATACTGTACGGTTAGA-3′ (ATCTAACTGCTGCGCCGCCGGGAAAATACTGTACGGTTAGA; listed as DNA, chemistry not fully specified)
fluorescence intensity of cells (flow cytometry) (CCRF-CEM cells): fluorescence intensity increases
